Reference: ChEMBL document CHEMBL3044824, “Synthesis and Acaricidal Activity of 1-Arylmethyl-2-arylimidazolidines” (2001)

Experiments:
Format in all cases: functional
[1] = tested on: Tetranychus urticae; experiment: Acaricidal activity against Tetranychus urticae (two-spotted spider mite) in second leaf stage of Phaseolus vulgaris var. Serena assessed as mortality at 500 ppm after 7 days
[2] = tested on: Tetranychus urticae; experiment: Acaricidal activity against Tetranychus urticae (two-spotted spider mite) in second leaf stage of Phaseolus vulgaris var. Serena assessed as mortality at 200 ppm after 7 days
[3] = tested on: Tetranychus urticae; experiment: Acaricidal activity against Tetranychus urticae (two-spotted spider mite) in second leaf stage of Phaseolus vulgaris var. Serena assessed as mortality at 100 ppm after 7 days
[4] = tested on: Tetranychus urticae; experiment: Acaricidal activity against Tetranychus urticae (two-spotted spider mite) in second leaf stage of Phaseolus vulgaris var. Serena assessed as mortality at 50 ppm after 7 days

`Cc1ccc(CN2CCN=C2c2ccccc2)cc1` was tested, and the Activity [1] was <24%.

In the case of `Clc1ccc(CN2CCCN=C2c2ccccc2)cc1`, the Activity [1] is reported as 50% and the Activity [2] is reported as 25%.

For `Clc1ccccc1C1=NCCN1Cc1ccccc1`, the Activity [1] was >80%, the Activity [2] was 50% and the Activity [3] was 25%.

For `Clc1cccc(Cl)c1CN1CCN=C1c1ccccc1`, the Activity [1] was >80% and the Activity [2] was 25%.

For `Clc1cccc(C2=NCCN2Cc2ccccc2)c1`, the Activity [1] was <24%.

For `c1cncc(CN2CCN=C2c2cccnc2)c1`, the Activity [1] was >80%, the Activity [2] was 50% and the Activity [3] was 25%.

`Clc1ccc(CN2CCN=C2c2cccnc2)cn1` showed an Activity [1] of 50% and an Activity [2] of 25%.

`Clc1ccccc1CN1CCN=C1c1ccccc1` was tested, and the Activity [1] was >80%, the Activity [2] was 50% and the Activity [3] was 25%.

`Clc1cccc(CN2CCN=C2c2ccccc2)c1` was tested, and the Activity [1] was >80% and the Activity [2] was 25%.

In the case of `c1ccc(C2=NCCN2c2ccccc2)cc1`, the Activity [1] is reported as <24%.

`c1ccc(CN2CCN=C2c2cccnc2)cc1` showed an Activity [1] of 25%.

In the case of `c1ccc(C2=NCCN2Cc2cccnc2)cc1`, the Activity [1] is reported as >80%, the Activity [2] is reported as 50% and the Activity [3] is reported as 25%.

With `Clc1ccc(CN2CCN=C2c2cccnc2)cc1` the Activity [1] was >80%, the Activity [4] was 25% and the Activity [2] was >80%. The Activity [3] was 50%.

In the case of `c1ccc(CC2=NCCN2Cc2ccccc2)cc1`, the Activity [1] is reported as <24%.

`Clc1ccc(C2=NCCN2Cc2ccccc2)cc1` was tested, and the Activity [1] was <24%.

For `c1ccc(CN2CCN=C2c2ccccc2)cc1`, the Activity [1] was 50% and the Activity [2] was 25%.

In the case of `Fc1cccc(F)c1C1=NCCN1Cc1ccc(Cl)cc1`, the Activity [1] is reported as >80%, the Activity [4] is reported as 25% and the Activity [2] is reported as >80%. For the same molecule, the Activity [3] was >80%.

For `CC1(C)CN=C(c2ccccc2)N(Cc2ccc(Cl)cc2)C1`, the Activity [1] was >80%, the Activity [2] was 50% and the Activity [3] was 25%.

For `c1ccc(C2=NCCN2Cc2ccc(-c3ccccc3)cc2)cc1`, the Activity [1] was >80%, the Activity [4] was 25% and the Activity [2] was >80%. For the same molecule, the Activity [3] was 50%.

`c1ccc(CCN2CCN=C2c2ccccc2)cc1` was tested, and the Activity [1] was 25%.

Work on `Clc1ccc(CN2CCN=C2c2ccccc2)c(Cl)c1` yielded an Activity [1] of 25%.

For `COc1ccc(CN2CCN=C2c2ccccc2)cc1`, the Activity [1] was <24%.

With `CC(C)(C)c1ccc(CN2CCN=C2c2ccccc2)cc1` the Activity [1] was >80%, the Activity [2] was 50% and the Activity [3] was 25%.

`Clc1ccc(CN2CCN=C2c2ccccc2)cn1` was tested, and the Activity [1] was 50% and the Activity [2] was <24%.

For `Fc1cccc(F)c1C1=NCCN1Cc1ccccc1`, the Activity [1] was >80%, the Activity [4] was >80% and the Activity [2] was >80%. The Activity [3] was >80%.

For `Clc1ccc(CN2CCN=C2c2ccccc2)cc1`, the Activity [1] was >80%, the Activity [4] was >80% and the Activity [2] was >80%. The Activity [3] was >80%.

`Clc1ccc(CC2=NCCN2Cc2ccc(Cl)cc2)cc1` was tested, and the Activity [1] was <24%.

`c1ccc(C2=NCCN2Cc2ccncc2)cc1` was tested, and the Activity [1] was >80%, the Activity [2] was 50% and the Activity [3] was >80%.
